Some results are limits rather than exact numbers.

The assay addresses skeletal myofibrils (myosin ATPase activity). Kind of assay: Skeletal Myofibril ATPase Assay. The settings on record: PK-LDH coupled, absorbance at 340 nm. In kind it is biochemical. Put shortly: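 Skeletal myofibril ATPase measured by PK-LDH-coupled NADH depletion at 340 nm, read every 1.5–2 min for 1 h; pCa buffer with PIPES/CaCl2/EGTA, pH 7.0. Rate taken as max–min absorbance, normalised to 1% DMSO vehicle (100%) and no change (0%); IC50 from four-parameter fit, bottom ≥0.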
The term IC50 denotes the concentration that gives 50% inhibition. A low value points to greater potency. In turn, `O=c1ccc(-c2cnc(OCC(F)(F)F)nc2)nn1Cc1cnc(C(F)F)s1` [Compound 105] displayed an IC50 of less than 10 µM.
To `O=c1ccc(-c2cnc(OCC(F)F)nc2)nn1Cc1cncc(F)c1` [Compound 106, 6-(2-(2,2-difluoroethoxy)pyrimidin-5-yl)-2-((5-fluoropyridin-3-yl)methyl)pyridazine-3(2H)-one] belongs less than 10 µM; to `O=c1ccc(-c2cnc(OCc3cncc(F)c3)nc2)nn1Cc1cncc(F)c1` [Compound 107, 6-(2-((5-fluoropyridin-3-yl)methoxy)pyrimidin-5-yl)-2-((5-fluoropyridin-3-yl)methyl)pyridazin-3(2H)-one], greater than 100 µM; to `CSCOc1ncc(-c2ccc(=O)n(Cc3cncc(F)c3)n2)cn1` [Compound 108, 2-((5-fluoropyridin-3-yl)methyl)-6-(2-((methylthio)methoxy)pyrimidin-5-yl)pyridazine-3(2H)-one], less than 10 µM.
On to `CSCc1ncc(Cn2nc(-c3cnc(OCC(F)(F)F)nc3)ccc2=O)s1` [Compound 109, 2-((2-((methylthio)methyl)thiazol-5-yl)methyl)-6-(2-(2,2,2-trifluoroethoxy)pyrimidin-5-yl)pyridazine-3(2H)-one], for which the 50% inhibitory concentration (IC50) is less than 10 µM.
In the case of `CC(C)COc1ncc(-c2ccc(=O)n(Cc3cncc(F)c3)n2)cn1` [Compound 110, 2-((5-fluoropyridin-3-yl)methyl)-6-(2-isobutoxypyrimidin-5-yl)pyridazine-3(2H)-one] it was less than 10 µM.
To `CSc1cncc(Cn2nc(-c3cnc(OCC(F)(F)F)nc3)ccc2=O)c1` [Compound 111] belongs less than 10 µM; to `CCCOc1ncc(-c2ccc(=O)n(Cc3cnc(CC)s3)n2)cn1` [Compound 112, 2-((2-ethylthiazol-5-yl)methyl)-6-(2-propoxypyrimidin-5-yl)pyridazine-3(2H)-one], less than 10 µM; to `CC(F)(F)COc1ncc(-c2ccc(=O)n(Cc3cncc(F)c3)n2)cn1` [Compound 113, 6-(2-(2,2-difluoropropoxy)pyrimidin-5-yl)-2-((5-fluoropyridin-3-yl)methyl)pyridazine-3(2H)-one], less than 10 µM.
To `CC(C)c1ncc(Cn2nc(-c3cnc(OCC(F)(F)F)nc3)ccc2=O)s1` [Compound 114, 2-((2-isopropylthiazol-5-yl)methyl)-6-(2-(2,2,2-trifluoroethoxy)pyrimidin-5-yl)pyridazine-3(2H)-one] belongs less than 10 µM; to `CC(C)Oc1ncc(-c2ccc(=O)n(Cc3cncc(F)c3)n2)cn1` [Compound 115, 2-((5-f1uoropyridin-3-yl)methyl)-6-(2-isopropoxypyrimidin-5-yl)pyridazine-3(2H)-one], less than 10 µM.
`CCCc1ncc(Cn2nc(-c3cnc(OCC(F)(F)F)nc3)ccc2=O)s1` [Compound 116, 2-((2-propylthiazol-5-yl)methyl)-6-(2-(2,2,2-trifluoroethoxy)pyrimidin-5-yl)pyridazine-3(2H)-one] showed a half-maximal inhibitory concentration (IC50) of less than 10 µM.
In the case of `O=c1ccc(-c2cnc(OCCC(F)(F)F)nc2)nn1Cc1cncc(F)c1` [Compound 117, 2-((5-f1uoropyridin-3-yl)methyl)-6-(2-(3,3,3-trifluoropropoxy)pyrimidin-5-yl)pyridazine-3(2H)-one] it was less than 10 µM; in that of `O=c1ccc(-c2cnc(OCC(F)(F)F)nc2)nn1Cc1cncc(F)n1` [Compound 118, 2-((6-fluoropyrazin-yl)methyl)-6-(2-(2,2,2-trifluoroethoxy)pyrimidin-5-yl)pyridazin-3(2H)-one], less than 10 µM; in that of `O=c1ccc(-c2cnc(OCC3CC3)nc2)nn1Cc1cncc(F)c1` [Compound 119, 6-(2-(cyclopropylmethoxy)pyrimidin-5-yl)-2-((5-fluoropyridin-3-yl)methyl)pyridazine-3(2H)-one], less than 10 µM.
To `CC[C@H](C)Oc1ncc(-c2ccc(=O)n(Cc3cncc(F)c3)n2)cn1` [Compound 120, (S)-6-(2-(sec-butoxy)pyrimidin-5-yl)-2((5-fluropyridin-3-yl)methyl)pyridazine-3(2H)-one] belongs less than 10 µM; to `CC(C)(F)COc1ncc(-c2ccc(=O)n(Cc3cncc(F)c3)n2)cn1` [Compound 121, 6-(2-(2-fluoro-2-methylpropoxy)pyrimidin-5-yl)-2-((5-f1uoropyridin-3-yl)methyl)pyridazine-3(2H)-one], less than 10 µM; to `O=c1ccc(-c2cnc(OCC(F)(F)F)nc2)nn1Cc1cnc(C2CCC2)s1` [Compound 122, 2-((2-cyclobutylthiazol-5-yl)methyl)-6-(2-(2,2,2-trifluoroethoxy)pyrimidin-5-yl)pyridazine-3(2H)-one], less than 10 µM.
To `CSC(C)COc1ncc(-c2ccc(=O)n(Cc3cncc(F)c3)n2)cn1` (stereo not drawn) [Compound 123, 2((5-fluoropyridin-3-yl)methyl)-6-(2-(2-(methylthio)propoxy)pyrimidin-5-yl)pyridazine-3(2H)-one] belongs less than 10 µM; to `CCc1ncc(Cn2nc(-c3cnc(OCC(C)C)nc3)ccc2=O)s1` [Compound 124, 2-((2-ethylthiazol-5-yl)methyl)-6-(2-isobutoxypyrimidin-5-yl)pyridazine-3(2H)-one], less than 10 µM.
`COC(C)(C)COc1ncc(-c2ccc(=O)n(Cc3cncc(F)c3)n2)cn1` [Compound 125, 2-((5-fluoropyridin-3-yl)methyl)-6-(2-(2-methoxy-2-methylpropoxy)pyrimidin-5-yl)pyridazine-3(2H)-one] gave a half-inhibitory concentration (IC50) of less than 10 µM.
In the case of `O=c1ccc(-c2cnc(OCC3CCC3)nc2)nn1Cc1cncc(F)c1` [Compound 126, 6-(2-(cyclobutylmethoxy)pyrimidin-5-yl)-2-((5-fluoropyridin-3-yl)methyl)pyridazine-3(2H)-one] it was less than 10 µM; in that of `CC[C@@H](C)Oc1ncc(-c2ccc(=O)n(Cc3cncc(F)c3)n2)cn1` [Compound 127], less than 10 µM.
As to `COc1cncc(Cn2nc(-c3cnc(OCC(F)(F)F)nc3)ccc2=O)c1` [Compound 128, 2-((5-methoxypyridin-3-yl)methyl)-6-(2-(2,2,2-trifluoroethoxy)pyrimidin-5-yl)pyridazine-3(2H)-one], the IC50 was less than 10 µM.
As for `CCc1ncc(Cn2nc(-c3cnc(OCC(C)(F)F)nc3)ccc2=O)s1` [Compound 129, 6-(2-(2,2-difluoropropoxy)pyrimidin-5-yl)-2((2-ethylthiazol-5-yl)methyl)pyridazine-3(2H)-one], the concentration for half-maximal inhibition (IC50) was less than 10 µM.
To `Cc1ncc(Cn2nc(-c3cnc(OCC(C)C)nc3)ccc2=O)s1` [Compound 130, 6-(2-isobutoxypyrimidin-5-yl)-2-((2-methylthiazol-5-yl)methyl)pyridazine-3(2H)-one] belongs less than 10 µM; to `[2H]C(C)(C)COc1ncc(-c2ccc(=O)n(Cc3cncc(F)c3)n2)cn1` [Compound 131, 2-((5-fluoropyridin-3-yl)methyl)-6-(2-(2-methylpropoxy-2-d)pyrimidin-5-yl)pyridazin-3(2H)-one], less than 10 µM.
For the molecule `COc1ccc(Cn2nc(-c3cnc(OCC(F)(F)F)nc3)ccc2=O)cn1` [Compound 132, 2-((6-methoxypyridin-3-yl)methyl)-6-(2-(2,2,2-trifluoroethoxy)pyrimidin-5-yl)pyridazine-3(2H)-one], the IC50 was less than 10 µM.
To `CCc1cncc(Cn2nc(-c3cnc(OCC(F)(F)F)nc3)ccc2=O)c1` [Compound 137, 2-((5-ethylpyridin-3-yl)methyl)-6-(2-(2,2,2-trifluoroethoxy)pyrimidin-5-yl)pyridazine-3(2H)-one] belongs less than 10 µM.
To `O=c1ccc(-c2cnc(OCc3ccccc3)nc2)nn1Cc1cncc(F)c1` [Compound 138] belongs less than 10 µM.
To `O=c1ccc(-c2ccc(OC(F)F)cc2)nn1Cc1nnc(-c2ccccc2)s1` [Compound 201, 6-(4-(difluoromethoxy)phenyl)-2-((5-phenyl-1,3,4-thiadiazol-2-yl)methyl)pyridazin-3(2H)-one] belongs less than 10 µM; to `O=c1ccc(-c2ccc(OC(F)F)cc2)nn1Cc1nc(-c2ccccc2)no1` [Compound 202, 6-(4-(difluoromethoxy)phenyl)-2-((3-phenyl-1,2,4-oxadiazol-5-yl)methyl)pyridazine-3(2H)-one], less than 10 µM.
`O=c1ccc(-c2ccc(OC(F)F)cc2)nn1Cc1nc2ccccc2o1` [Compound 203, 2-(benzo[d]oxazol-2-ylmethyl)-6-(4-(difluoromethoxy)phenyl) pyridazine-3(2H)-one] had an IC50 of less than 10 µM.
To `Cc1cc(Cn2nc(-c3ccc(OC(F)F)cc3)ccc2=O)on1` [Compound 204, 6-(4-(difluoromethoxy)phenyl)-2-((3-methylisoxazol-5-yl)methyl)pyridazine-3(2H)-one] belongs less than 10 µM; to `Cc1csc(Cn2nc(-c3ccc(OC(F)F)cc3)ccc2=O)n1` [Compound 205, 6-(4-(difluoromethoxy)phenyl)-2-((4-methylthiazol-2-yl)methyl) pyridazine-3(2H)-one], less than 10 µM; to `O=c1ccc(-c2ccc(OC(F)F)cc2)nn1Cc1cc(C2CC2)no1` [Compound 206, 2-((3-cyclopropylisoxazol-5-yl)methyl)-6-(4-(difluoromethoxy)phenyl) pyridazine-3(2H)-one], less than 10 µM.
To `O=c1ccc(-c2ccc(OC(F)F)cc2)nn1Cc1nc(C2CC2)no1` [Compound 208, 2((3-cyclopropyl-1,2,4-oxadiazol-5-yl)methyl)-6-(4-(difluoromethoxy)phenyl) pyridazine-3(2H)-one] belongs less than 10 µM; to `CCc1cc(Cn2nc(-c3ccc(OC(F)F)cc3)ccc2=O)on1` [Compound 209, 6-(4-(difluoromethoxy)phenyl)-2-((3-ethylisoxazol-5 - yl)methyl)pyridazin-3(2H)-one], less than 10 µM; to `O=c1ccc(-c2ccc(OC(F)F)cc2)nn1Cc1nc(C2CC2)cs1` [Compound 210, 2-((4-cyclopropylthiazol-2-yl)methyl)-6-(4-(difluoromethoxy)phenyl) pyridazine-3(2H)-one], less than 10 µM.
